Data reported in US20080299270A1, “Fat Taste Receptors and Their Methods of Use” (NESTEC S.A., priority 2005, published 2008).

Tested on: GPR40
Test: two-bottle preference test of fat emulsions, GPR40 knockout vs normal mice
Format: in vivo, mouse
Conditions: GPR40 knockout mice compared to control mice; fat emulsion vs vehicle only, two drinking bottles
Excerpt: A preference ratio of 0.5 indicates indifference, above 0.5 indicates preference and below 0.5 indicates avoidance. Both preference and intake of fat are diminished in the GPR40 KO mice compared to control mice. The stars show the concentrations of lipids at which the differences of intake or preference between knockout and control mice are statistically significant. […] The fat emulsions contained corn oil, Intralipid, lauric acid or oleic acid. When compared with normal mice, the knockout animals drank less fat. […] Because mice can still detect fat in the absence of GPR40, another receptor, probably GPR120, must also play a role in fat taste signaling.

Compound	intake of fat emulsion	preference for fat emulsion
CCCCCCCC/C=C\CCCCCCCC(=O)O [oleic acid]	diminished	diminished
CCCCCCCCCCCC(=O)O [lauric acid]	diminished	diminished
